The values that follow come from patent publication US8993554B2, “Tetrahydroquinoline derivatives useful as bromodomain inhibitors” (GlaxoSmithKline LLC, priority 2011, dated 2015).

The term IC50 denotes the concentration at which inhibition is half-maximal.

Structures can show the parent of a compound that is named as a salt.

For the test, the system named is LPS induced IL-6 secretion from whole blood. As to the kind of experiment: Measurement of LPS Induced IL-6 Secretion from Whole Blood. Type of test: cell-based. The conditions noted are these: IL-6 by immunoassay, LPS 200 ng/ml, 24 hours. The procedure: Activation of monocytic cells by agonists of toll-like receptors such as bacterial lipopolysaccharide (LPS) results in production of key inflammatory mediators including IL-6. Such pathways are widely considered to be central to the pathophysiology of a range of auto-immune and inflammatory disorders.
Compounds to be tested are diluted to give a range of appropriate concentrations of which 1 μl of the diluted stocks is added to a 96 well plate. Following addition of whole blood (130 μl) the plates are incubated at 37 degrees (5% CO2) for 30 min before the addition of 10 μl of 2.8 ug/ml LPS, diluted in complete RPMI 1640 (final concentration=200 ng/ml), to give a total volume of 140 μl per well. After further incubation for 24 hours at 37 degrees, 140 μl of PBS are added to each well. The plates are sealed, shaken for 10 minutes and then centrifuged (2500 rpm×10 min). 100 μl of the supernatant are removed and IL-6 levels assayed by immunoassay (typically by MesoScale Discovery technology) either immediately or following storage at −20 degrees. Concentration response curves for each compound was generated from the data and an IC50 value was calculated.
`CC(=O)N1c2ccc(-c3ccc(C(=O)NCCN(C)C)cc3)cc2[C@H](Nc2ccc(Cl)cc2)C[C@@H]1C` [Example 38, 4-((2S,4R)-1-acetyl-4-((4-chlorophenyl)amino)-2-methyl-1,2,3,4-tetrahydroquinolin-6-yl)-N-(2-(dimethylamino)ethyl)benzamide] showed an IC50 of 0.0501 to 3.16 µM. In the case of `CC(=O)N1c2ccc(-c3ccc(C(=O)NCCO)cc3)cc2[C@H](Nc2ccc(Cl)cc2)C[C@@H]1C` [Example 40, 4-((2S,4R)-1-acetyl-4-((4-chlorophenyl)amino)-2-methyl-1,2,3,4-tetrahydroquinolin-6-yl)-N-(2-hydroxyethyl)benzamide] it was 0.0501 to 3.16 µM; in that of `CC(=O)N1c2ccc(-c3ccc(C(=O)NC[C@H](C)O)cc3)cc2[C@H](Nc2ccc(Cl)cc2)C[C@@H]1C` [Example 42, 4-((2S,4R)-1-acetyl-4-((4-chlorophenyl)amino)-2-methyl-1,2,3,4-tetrahydroquinolin-6-yl)-N—((S)-2-hydroxypropyl)benzamide], 0.0501 to 3.16 µM. Compound `CC(=O)N1c2ccc(-c3ccc(C(=O)NCCN)cc3)cc2[C@H](Nc2ccc(Cl)cc2)C[C@@H]1C` [Example 44, 4-((2S,4R)-1-acetyl-4-((4-chlorophenyl)amino)-2-methyl-1,2,3,4-tetrahydroquinolin-6-yl)-N-(2-aminoethyl)benzamide] gave an IC50 of 0.0501 to 3.16 µM. `CC(=O)N1c2ccc(-c3ccc(C(=O)NCCN(C)C)cc3)cc2[C@H](Nc2ccccc2)C[C@@H]1C` [Example 45, 4-((2S,4R)-1-acetyl-2-methyl-4-(phenylamino)-1,2,3,4-tetrahydroquinolin-6-yl)-N-(2-(dimethylamino)ethyl)benzamide]: the IC50 is 0.0501 to 3.16 µM. Consider `CC(=O)N1c2ccc(-c3ccc(C(=O)NCCO)cc3)cc2[C@H](Nc2ccccc2)C[C@@H]1C` [Example 46, 4-((2S,4R)-1-acetyl-2-methyl-4-(phenylamino)-1,2,3,4-tetrahydroquinolin-6-yl)-N-(2-hydroxyethyl)benzamide], for which the IC50 is 0.0501 to 3.16 µM. Then `CC(=O)N1c2ccc(-c3ccc(C(=O)N4CCNCC4)nc3)cc2[C@H](Nc2ccc(C#N)cn2)C[C@@H]1C` [Example 48, 6-(((2S,4R)-1-acetyl-2-methyl-6-(6-(piperazine-1-carbonyl)pyridin-3-yl)-1,2,3,4-tetrahydroquinolin-4-yl)amino)nicotinonitrile], with 0.0501 to 3.16 µM; and `CC(=O)N1c2ccc(-c3ccc(C(=O)NCCO)nc3)cc2[C@H](Nc2cnc(C#N)cn2)C[C@@H]1C` [Example 49, 5-((2S,4R)-1-acetyl-4-((5-cyanopyrazin-2-yl)amino)-2-methyl-1,2,3,4-tetrahydroquinolin-6-yl)-N-(2-hydroxyethyl)picolinamide], with 0.0501 to 3.16 µM; and `CC(=O)N1c2ccc(-c3ccc(C(=O)N4CCOCC4)nc3)cc2[C@H](Nc2ccc(C)cn2)C[C@@H]1C` [Example 51, 1-((2S,4R)-2-methyl-4-((5-methylpyridin-2-yl)amino)-6-(6-(morpholine-4-carbonyl)pyridin-3-yl)-3,4-dihydroquinolin-1(2H)-yl)ethanone], with 0.0501 to 3.16 µM. In the case of `CC(=O)N1c2ccc(-c3ccc(C(=O)N4CCOCC4)nc3)cc2[C@H](Nc2ccc(Cl)cn2)C[C@@H]1C` [Example 52, 1-((2S,4R)-4-((5-chloropyridin-2-yl)amino)-2-methyl-6-(6-(morpholine-4-carbonyl)pyridin-3-yl)-3,4-dihydroquinolin-1(2H)-yl)ethanone] it was 0.0501 to 3.16 µM; in that of `CC(=O)N1c2ccc(-c3ccc(C(=O)N4CCOCC4)nc3)cc2[C@H](Nc2cnc(C)cn2)C[C@@H]1C` [Example 54, 1-((2S,4R)-2-methyl-4-((5-methylpyrazin-2-yl)amino)-6-(6-(morpholine-4-carbonyl)pyridin-3-yl)-3,4-dihydroquinolin-1(2H)-yl)ethanone], 0.0501 to 3.16 µM; in that of `CC(=O)N1c2ccc(-c3ccc(C(=O)N4CCOCC4)cc3)cc2[C@H](Nc2ccc(C)cn2)C[C@@H]1C` [Example 56, 1-((2S,4R)-2-methyl-4-((5-methylpyridin-2-yl)amino)-6-(4-(morpholine-4-carbonyl)phenyl)-3,4-dihydroquinolin-1(2H)-yl)ethanone formate], 0.0501 to 3.16 µM. `CC(=O)N1c2ccc(-c3ccc(C(=O)N4CCOCC4)cn3)cc2[C@H](Nc2ccc(Cl)cn2)C[C@@H]1C` [Example 57, 1-((2S,4R)-4-((5-chloropyridin-2-yl)amino)-2-methyl-6-(5-(morpholine-4-carbonyl)pyridin-2-yl)-3,4-dihydroquinolin-1(2H)-yl)ethanone] showed an IC50 of 0.0501 to 3.16 µM.

`CC(=O)N1c2ccc(-c3ccc(C(=O)N4CCOCC4)cn3)cc2[C@H](Nc2cnccn2)C[C@@H]1C` [Example 58, 1-((2S,4R)-2-methyl-6-(5-(morpholine-4-carbonyl)pyridin-2-yl)-4-(pyrazin-2-ylamino)-3,4-dihydroquinolin-1(2H)-yl)ethanone] had an IC50 of 0.0501 to 3.16 µM. Then `CC(=O)N1c2ccc(-c3ccc(C(=O)N4CCOCC4)cn3)cc2[C@H](Nc2ccc(C)cn2)C[C@@H]1C` [Example 59, 1-((2S,4R)-2-methyl-4-((5-methylpyridin-2-yl)amino)-6-(5-(morpholine-4-carbonyl)pyridin-2-yl)-3,4-dihydroquinolin-1(2H)-yl)ethanone], with 0.0501 to 3.16 µM. In the case of `CC(=O)N1c2ccc(-c3ccc(C(=O)N4CCOCC4)cn3)cc2[C@H](Nc2cnc(C)cn2)C[C@@H]1C` [Example 60, 1-((2S,4R)-2-methyl-4-((5-methylpyrazin-2-yl)amino)-6-(5-(morpholine-4-carbonyl)pyridin-2-yl)-3,4-dihydroquinolin-1(2H)-yl)ethanone] it was 0.0501 to 3.16 µM; in that of `CC(=O)N1c2ccc(-c3ccc(C(=O)N4CCOCC4)cn3)cc2[C@H](Nc2ccccn2)C[C@@H]1C` [Example 61, 1-((2S,4R)-2-methyl-6-(5-(morpholine-4-carbonyl)pyridin-2-yl)-4-(pyridin-2-ylamino)-3,4-dihydroquinolin-1(2H)-yl)ethanone], 0.0501 to 3.16 µM; in that of `CC(=O)N1c2ccc(-c3ccc(C(=O)N4CCOCC4)nc3)cc2[C@H](Nc2cccc(Cl)c2)C[C@@H]1C` [Example 62], 0.0501 to 3.16 µM.

In the case of `CC(=O)N1c2ccc(-c3ccc(C(=O)N4CCOCC4)cn3)cc2[C@H](Nc2cccc(Cl)c2)C[C@@H]1C` [Example 63], the IC50 was 0.0501 to 3.16 µM. `CC(=O)N1c2ccc(-c3ccc(C(=O)N4CCOCC4)cn3)cc2[C@H](Nc2ccc(Cl)cc2)C[C@@H]1C` [Example 64, 1-((2S,4R)-4-((4-chlorophenyl)amino)-2-methyl-6-(5-(morpholine-4-carbonyl)pyridin-2-yl)-3,4-dihydroquinolin-1(2H)-yl)ethanone]: the IC50 was 0.0501 to 3.16 µM. `CC(=O)N1c2ccc(-c3ccc(C(=O)N4CCOCC4)cc3)cc2[C@H](Nc2ccc(C#N)cn2)C[C@@H]1C` [Example 65, 6-(((2S,4R)-1-acetyl-2-methyl-6-(4-(morpholine-4-carbonyl)phenyl)-1,2,3,4-tetrahydroquinolin-4-yl)amino)nicotinonitrile] had an IC50 of 0.0501 to 3.16 µM. On to `CC(=O)N1c2ccc(-c3ccc(C(=O)N4CCCC4)cc3)cc2[C@H](Nc2ccc(C)cn2)C[C@@H]1C` [Example 68, 1-((2S,4R)-2-methyl-4-((5-methylpyridin-2-yl)amino)-6-(4-(pyrrolidine-1-carbonyl)phenyl)-3,4-dihydroquinolin-1(2H)-yl)ethanone formate], for which the IC50 is 0.0501 to 3.16 µM.
